Test results published in patent US9987379B2, “Molecular probes for imaging of myelin” (Case Western Reserve University, priority 2008, dated 2018).
Entries after “also recorded” stand apart in the source; their conditions may differ.

Assays:
Log P of CMC = format: physicochemical; conditions: method not stated
[1] = tested on: myelin in corpus callosum; assay: In vitro CMC tissue staining of mouse brain sections (wild-type and Plp-Akt-DD); format: binding
Protocol: Free floating sections were incubated in 1% H2O2/Triton-100 for 10 min, then incubated in a solution of test compounds (100 μM) in 1% DMSO/PBS for 30 min at room temperature. The sections were washed three times with PBS before cover-slipping with fluorescence mounting medium (Vectashield, Vector laboratories). […] The fluorescent nature of these coumarin derivatives allows for staining of mouse brain tissue sections in a way similar to other conventional myelin stains. The tissue staining represents a direct approach to evaluate the binding specificity of the test compounds for myelin sheaths. The myelinated corpus callosum region was then examined by fluorescent microscopy. […] For correlation, the MBP immunostaining was also conducted in adjacent sections (FIG. 10E).

[2] = tested on: myelin sheaths of the corpus callosum and cerebellum; assay: In situ CMC staining of myelin after i.v. injection; format: in vivo, mouse; conditions: 25 mg/kg tail vein, 1 hr post injection, wild-type and Plp-Akt-DD mice
Protocol: In this experiment, 25 mg/kg of CMC was administered through i.v. injection in the tail vein of 2-month old wild-type mice and Plp-Akt-DD mice Animals were sacrificed at 1 hr after injection through heart puncture. The brains were removed and fixed in 4% PFA. The brains were then sectioned and fluorescent images were directly acquired on a Zeiss Axiovert 200M inverted microscope (2.5× objective) with a AxioCam digital camera (Carl Zeiss Microlmagibg, Inc, Thornwood, N.Y.).
Following our in vitro studies, we investigated the ability of CMC to monitor myelin contents ex vivo in the mouse brain. A dose of 0.5 mg CMC (25 mg/kg) was injected via the tail vein into wild-type mice and Plp-Akt-DD mice. One hr postinjection, mice were perfused and brains were removed and sectioned as described above. CMC staining of myelin was then directly examined under fluorescent microscopy.

[3] = Stability of [125I]9 monitored by HPLC; format: physicochemical
Text: The radiochemical identity of [^125I]9 was verified by co-injection with cold standard Compound 9. Following HPLC purification, [^125I]9 was obtained in 70% radiochemical yield with a radiochemical purity of >98% and a specific activity of 80 TBq/mmol As monitored by HPLC, [^125I]9 was found stable to be kept at room temperature for up to 8 hrs and in the refrigerator for up to 2 months.

[4] = Octanol-water partition coefficient measurement; format: physicochemical
Text: The partition coefficient (PC) is an important parameter of brain permeability. PC values ranging 1.0˜3.5 often show good initial brain entry following i.v. injection (Wu, C.; Pike, V. W.; Wang, Y. Amyloid imaging: from benchtop to bedside. Curr Top Dev Biol 2005, 70, 171-213; Levin, V. A. Relationship of octanol/water partition coefficient and molecular weight to rat brain capillary permeability. J Med Chem 1980, 23, 682-684; Dishino, D. D.; Welch, M. J.; Kilbourn, M. R.; Raichle, M. E. Relationship between lipophilicity and brain extraction of C-11-labeled radiopharmaceuticals. J Nucl Med 1983, 24, 1030-1038. For this reason, we radioiodinated Compound 9 and quantitatively determined the lipophilicity of [^125I]9. Based on the conventional octanol-water partition measurement, the log Poct of [^125I]9 was determined as 2.5±0.1, which falls in the range for optimal brain entry.
Partition coefficients (PC) were measured by mixing the radioligands with 3 g (3.65 mL) 1-octanol and 3 g (3.0 mL) buffer (pH 7.40, 0.1 M phosphate) in a test tube. The test tube was vortexed for 3 mM at room temperature and then centrifuged (3500 rpm, 5 mM) 1 ml of samples from the 1-octanol and buffer layers were assayed for radioactivity content in a well γcounter. The partition coefficient was determined by calculating the ratio of cpm/g of 1-octanol to that of the buffer. […]

[5] = Brain uptake / permeability across the blood-brain barrier in mice; format: in vivo, mouse
Protocol: Encouraged by the aforementioned studies, we further evaluated the permeability of [^125I]9 across the blood brain barrier. Following bolus tail vein injection of [^125I]9 (0.2 ml, 0.185 MBq), the radioactivity concentration of [^125I]9 in the brain was determined at 2, 30, and 60 min post injection. […] The initial brain entry was 2.29±0.66% ID/g at 2 min post injection. At 30 min post injection, the brain radioactivity concentration reached its peak level (2.65±0.27% ID/g). […] Retention of [^125I]9 at later time points was likely due to binding to myelin membranes as indicated by aforementioned in vitro and in situ staining studies.
While under anesthesia, 0.1 mL of a saline solution (consisting of saline (2 mL, 9 mg/mL), propylene glycol (2 mL), ethanol (0.7 mL) and HCl (0.3 mL, […]))^25 containing 5 μCi of radioactive tracer, was injected into the tail veins of mice (Swiss-Webster, 2 month old, 2 mice per group). The mice were sacrificed by heart puncture at 2 mM, 30 mM, 60 min and 120 mM post injection under anesthesia. Brains were rapidly removed and weighed, and the brain uptake was expressed as percentage of injection dose per gram organ (% ID/g), which was calculated by a ratio of per gram tissue counts to counts of 1% of the initial dose (100 times diluted aliquots of the injected radioligand) measured at the same time.

[6] = tested on: myelinated corpus callosum and cerebellum; assay: In vitro autoradiography of mouse brain sections; format: binding; conditions: sagittal mouse brain sections, 1 hr incubation
Protocol: To further evaluate the binding specificity of [^125I]9 to myelin sheaths in the brain, in vitro autoradiography was carried out in mice.
Mouse brain sections were incubated in [^125I]9 (20% Ethanol, 4,380,000 cpm/16 ml) for 1 hr. The slides were quickly washed with PBS buffer (10 mM, pH 7.0) 3 times, saturated Li2CO3 in 40% ethanol (2×3 mM), 40% ethanol (2 mM) and H2O (30 sec). After drying by air, the slides were put in a cassette and exposed to film for 44 hrs to obtain images.

## Nc1ccc(-c2cc3ccccc3oc2=O)cc1 [CMC, 3-(4-aminophenyl)-2H-chromen-2-one]
Log P of CMC
  logP: 2.68
[1]; 100 uM, mouse brain sections
  staining contrast among the coumarin derivatives screened: highest contrast
[1]; 100 uM, wild-type mouse brain sections
  in vitro staining of myelin: selectively stained intact myelin tracks
[1]; corpus callosum, hypermyelinated Plp-Akt-DD vs wild-type
  fluorescent intensity in Plp-Akt-DD mouse brain relative to wild-type mouse brain: 1.27 fold
[2]
  brain entry and in situ labeling of myelin: highly permeable across the BBB and selectively localizes in myelinated regions; also recorded: entered the brain and selectively labeled myelin sheaths of the corpus callosum and cerebellum

## Nc1ccc(C=Cc2ccc([125I])cc2)cc1 [[^125I]9, 4-[2-(4-[^125I]Iodo-phenyl)-vinyl]-phenylamine]
[3]; in the refrigerator
  time found stable in the refrigerator: up to 2 months
[3]; room temperature
  time found stable at room temperature: up to 8 hrs
[4]
  log Poct: 2.5±0.1
[5]; 2 min post tail vein injection
  brain radioactivity concentration: 2.29±0.66 % ID/g
[5]; 30 min post tail vein injection
  brain radioactivity concentration: 2.65±0.27 % ID/g
[5]; 60 min post tail vein injection
  brain radioactivity concentration: 2.05 ± 0.13 % ID/g
[5]; 120 min post tail vein injection
  brain radioactivity concentration: 1.12±0.23 % ID/g
[6]
  autoradiographic labeling of brain sections: distinct labeling of myelinated regions
